For experiment [1], the target named is Serotonin 3 (5-HT3) receptor (Rattus norvegicus) (UniProt P35563+Q9JJ16). In words: In vivo 5-hydroxytryptamine 3 receptor antagonist activity by antagonism of the von Bezold-Jarisch (B-J) reflex in anesthetized rats, (i.v.). It is filed as functional, organism-based.
In experiment [2] the target is 5-hydroxytryptamine receptor 4 (Rattus norvegicus, UniProt Q62758). Nature of the experiment: 5-hydroxytryptamine 4 receptor agonist activity in the rat esophageal muscularis mucosae. It is filed as functional.
5-hydroxytryptamine receptor 4, sequence (Q62758 whole entry): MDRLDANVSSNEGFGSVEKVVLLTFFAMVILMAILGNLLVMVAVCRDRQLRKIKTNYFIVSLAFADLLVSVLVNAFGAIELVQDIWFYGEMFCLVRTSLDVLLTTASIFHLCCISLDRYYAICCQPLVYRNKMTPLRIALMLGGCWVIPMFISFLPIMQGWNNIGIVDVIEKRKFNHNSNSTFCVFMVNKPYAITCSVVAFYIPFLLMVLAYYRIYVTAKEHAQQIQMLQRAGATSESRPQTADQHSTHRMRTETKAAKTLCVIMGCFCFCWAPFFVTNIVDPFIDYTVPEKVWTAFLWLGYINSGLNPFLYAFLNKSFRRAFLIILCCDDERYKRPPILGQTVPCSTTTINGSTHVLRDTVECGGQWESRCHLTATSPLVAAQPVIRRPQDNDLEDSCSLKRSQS
Experiment [3] addresses T1, Serotonin 3 (5-HT3) receptor (Rattus norvegicus, UniProt P35563+Q9JJ16).
T1 sequence (P35563 whole entry): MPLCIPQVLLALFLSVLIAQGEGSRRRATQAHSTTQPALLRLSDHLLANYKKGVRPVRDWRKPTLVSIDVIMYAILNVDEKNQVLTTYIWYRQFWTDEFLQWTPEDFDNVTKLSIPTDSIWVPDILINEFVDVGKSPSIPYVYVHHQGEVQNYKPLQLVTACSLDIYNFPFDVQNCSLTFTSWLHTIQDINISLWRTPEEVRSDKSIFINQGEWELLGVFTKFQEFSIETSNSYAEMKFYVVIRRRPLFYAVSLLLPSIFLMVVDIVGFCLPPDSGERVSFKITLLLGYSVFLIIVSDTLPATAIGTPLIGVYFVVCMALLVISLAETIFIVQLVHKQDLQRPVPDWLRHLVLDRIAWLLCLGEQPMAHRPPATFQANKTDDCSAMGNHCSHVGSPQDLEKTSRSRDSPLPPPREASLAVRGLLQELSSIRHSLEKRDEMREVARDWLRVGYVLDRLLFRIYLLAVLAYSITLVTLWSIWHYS
T1 sequence (Q9JJ16 whole entry): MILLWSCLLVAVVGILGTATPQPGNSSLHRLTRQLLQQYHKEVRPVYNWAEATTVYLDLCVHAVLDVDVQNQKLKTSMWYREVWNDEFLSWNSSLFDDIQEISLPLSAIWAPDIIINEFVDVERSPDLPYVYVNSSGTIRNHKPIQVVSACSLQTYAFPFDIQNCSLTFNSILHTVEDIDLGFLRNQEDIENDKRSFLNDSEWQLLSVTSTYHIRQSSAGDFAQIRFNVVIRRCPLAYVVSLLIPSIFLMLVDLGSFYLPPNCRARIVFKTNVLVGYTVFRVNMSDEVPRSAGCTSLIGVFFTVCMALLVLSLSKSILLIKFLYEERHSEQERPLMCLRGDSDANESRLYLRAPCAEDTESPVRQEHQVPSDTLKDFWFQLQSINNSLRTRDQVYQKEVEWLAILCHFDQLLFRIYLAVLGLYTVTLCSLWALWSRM
Nature of the experiment: Binding affinity to 5-hydroxytryptamine 3 receptor was determined in rat cerebro cortical membranes using [3H]quipazine. It is filed as cell membranes.

Experiment [4] addresses 5-hydroxytryptamine receptor 4 (Rattus norvegicus) (UniProt Q62758). In words: lntrinsic activity relative to 5-HT receptor. It is filed as functional.

Structures are written as SMILES.

5-hydroxytryptamine receptor 4 (Rattus norvegicus), sequence (Q62758 whole entry): as the sequence (Q62758 whole entry) above

In general, EC50 refers to the midpoint of the concentration-response curve. For orientation: Ki means the dissociation constant of the complex between target and ligand, obtained from inhibition or displacement. Low readings indicate higher affinity, high ones lower affinity. `Nc1c(Cl)cc2c3c(cccc13)C(=O)N([C@@H]1CN3CCC1CC3)C2=O` registered an Inhibitory dose (ID50) in experiment [1] of 0.077 mg/kg. The midpoint of the response in experiment [2], the EC50, lay at 12.6 nM. In addition, in experiment [3], the Ki is 10 nM. In addition, in experiment [4], the Activity is 0.8.
Molecule `COc1cc(N)c(Cl)cc1C(=O)N[C@@H]1CN2CCC1CC2` had an EC50 in experiment [2] of 63.1 nM. In addition, the Activity in experiment [4] turned out to be 0.9.
The like results for `COc1cc(N)c(Cl)cc1C(=O)N[C@H]1CN2CCC1CC2` [(R)ZACOPRIDE] were, in that order, 501 nM and 0.9.
Consider `NCCc1c[nH]c2ccc(O)cc12`, for which the Activity in experiment [4] came to 1.
Turning to `Nc1c(Cl)cc2c3c(cccc13)C(=O)N([C@H]1CN3CCC1CC3)C2=O`, the Inhibitory dose (ID50) in experiment [1] is 0.0045 mg/kg. In experiment [2], this molecule gave an EC50 greater than 1000 nM. The molecule also showed a Ki in experiment [3] of 0.794 nM.
Molecule `CN1CCC(N2C(=O)c3cccc4c(N)c(Cl)cc(c34)C2=O)CC1` displayed an Inhibitory dose (ID50) in experiment [1] of 0.288 mg/kg. The molecule further gave an EC50 in experiment [2] of 31.6 nM. The molecule further gave a Ki in experiment [3] of 39.8 nM. This molecule also came in with an Activity in experiment [4] of 0.9.

Values taken from ChEMBL document CHEMBL1151489, “N-(quinuclidin-3-YL)-1,8,-naphthalimides with 5-HT3 receptor antagonist and 5-HT4 receptor agonist properties” (Bioorg Med Chem Lett, 1993).
